{
  "source": "patent US20080261929A1",
  "about": "“COMBINATION OF PROGESTERONE-RECEPTOR ANTAGONIST TOGETHER WITH AN AROMATASE INHIBITOR FOR USE IN BRCA MEDIATED DISEASES” (priority 2007, published 2008)",
  "key": {"progesterone receptor [1]": {"target": "T1, progesterone receptor (Homo sapiens, UniProt P06401)", "T1 sequence (P06401 1-933)": "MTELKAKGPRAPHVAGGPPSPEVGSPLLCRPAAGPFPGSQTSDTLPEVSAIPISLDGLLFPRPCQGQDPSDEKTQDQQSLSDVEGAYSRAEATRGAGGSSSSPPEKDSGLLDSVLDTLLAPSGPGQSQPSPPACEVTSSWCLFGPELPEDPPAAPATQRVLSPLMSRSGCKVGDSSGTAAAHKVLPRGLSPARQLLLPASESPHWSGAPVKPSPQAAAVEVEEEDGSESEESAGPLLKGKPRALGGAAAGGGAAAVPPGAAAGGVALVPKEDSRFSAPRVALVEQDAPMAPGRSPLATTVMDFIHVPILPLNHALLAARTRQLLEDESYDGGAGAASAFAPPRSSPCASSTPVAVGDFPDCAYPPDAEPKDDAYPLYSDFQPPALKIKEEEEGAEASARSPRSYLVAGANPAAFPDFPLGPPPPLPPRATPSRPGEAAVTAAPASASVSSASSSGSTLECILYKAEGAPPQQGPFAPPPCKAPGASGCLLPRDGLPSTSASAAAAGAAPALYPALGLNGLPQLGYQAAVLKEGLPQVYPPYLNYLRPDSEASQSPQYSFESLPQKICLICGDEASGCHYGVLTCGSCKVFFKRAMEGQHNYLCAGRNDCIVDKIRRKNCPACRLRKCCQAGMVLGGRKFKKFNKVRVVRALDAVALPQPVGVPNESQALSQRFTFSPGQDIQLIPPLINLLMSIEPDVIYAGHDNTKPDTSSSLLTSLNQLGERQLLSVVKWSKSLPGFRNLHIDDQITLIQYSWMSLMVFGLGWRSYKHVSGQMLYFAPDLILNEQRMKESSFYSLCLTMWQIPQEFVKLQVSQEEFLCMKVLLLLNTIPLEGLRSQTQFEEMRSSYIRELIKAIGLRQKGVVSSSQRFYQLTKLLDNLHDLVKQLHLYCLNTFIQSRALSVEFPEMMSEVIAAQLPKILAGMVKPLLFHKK", "experiment": "Progesterone receptor protein expression/stability after siRNA knock down of BRCA1 (Example 1)", "type": "cell-based", "experimental": "MCF-7 and T47D mammary cells were stabely transfected with the aromatse gene. These cells grow with androstenedione stimulus. These cells were treated with siRNA knocking down the BRCA1 and BRCA2 gene.\nIn a second step cells were stimulated either with progesterone and/or with androstenedione. […] The effects on progesterone receptor protein expression were further investigated."}, "progesterone receptor [2]": {"target": "T1, progesterone receptor", "experiment": "Progesterone receptor protein expression/stability after knock down of BRCA1 (Example 3)", "text": "MCF-7 and T47D mammary cells stabely transfected with the aromatse gene. These cells grow with androstenedione stimulus in vivo. These cells were stabely transfected with shRNA knocking down the BRCA1 and BRCA2 gene. Cell growth in vivo in comparison to untransfected and mock transfected cells was compared. In a second step cells were implanted in immunodeficient nude mice and stimulated either with progesterone and/or with androstenedione. […] The effects on progesterone receptor protein expression were further investigated."}, "tumor cells": {"tested_on": "tumor cells", "experiment": "Apoptosis of tumor cells"}, "progesterone receptor [3]": {"target": "T1, progesterone receptor", "conditions": "cited from earlier work"}, "mammary tumors": {"tested_on": "mammary tumors", "conditions": "mice with rodent BRCA1- or BRCA2 inactivated in mammary glands; Poole et al., Science 2006; cited from earlier work"}, "[4]": {"conditions": "administered orally; cited from earlier work"}},
  "note": "Where two headings read alike, the source gives them in different places.",
  "data": [
    {"compound": "CC(=O)c1ccc([C@H]2C[C@@]3(C)[C@@H](CC[C@@]3(O)C(F)(F)C(F)(F)F)[C@@H]3CCC4=CC(=O)CCC4=C32)cc1", "note": "[11β-(4-acetylphenyl)-17β-hydroxy-17α-(1,1,2,2,2-pentafluoroethyl)-estra-4,9-dien-3-one]", "values": [
      {"measurement": "Effect on increased stability of progesterone receptor after BRCA1 knock down", "setting": "progesterone receptor [1]", "result": "could be antagonized"},
      {"measurement": "Effect on increased stability of progesterone receptor after BRCA1 knock down", "setting": "progesterone receptor [2]", "result": "could be antagonized"},
      {"measurement": "Apoptosis of tumor cells", "setting": "tumor cells", "result": "increased apoptosis of tumor cells"},
      {"measurement": "Antiprogestagenic activity", "setting": "progesterone receptor [3]; Fuhrmann et al., J. Med. Chem. 2000", "result": "high antiprogestagenic activity"},
      {"measurement": "Other endocrinological (side) effects, e.g. androgen, estrogen or antiglucocorticoid activity", "setting": "progesterone receptor [3]", "result": "only very weak or no endocrine side effects"},
      {"measurement": "Other endocrinological (side) effects, e.g. androgen, estrogen or antiglucocorticoid activity", "setting": "progesterone receptor [3]; listed as ZK230211", "result": "little or no other endocrinological effects"}
    ]},
    {"compound": "CC#C[C@]1(O)CC[C@H]2[C@@H]3CCC4=CC(=O)CCC4=C3[C@@H](c3ccc(N(C)C)cc3)C[C@@]21C", "note": "[mifepristone]", "values": [
      {"measurement": "Development of mammary tumors", "setting": "mammary tumors", "result": "blocks the development of mammary tumors"},
      {"measurement": "Bioavailability", "setting": "[4]", "result": "poor bioavailability"}
    ]}
  ]
}
